Source: PubChem BioAssay (NCI)
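How tested: cells in 96-well plates exposed to compound for 48 hours at five concentrations. GI50 = concentration required for 50% inhibition of growth. TGI is the concentration that stops growth completely.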

Columns and labels:
Experiment in all cases: NCI anticancer screen, dose series, 48 h
SR leukemia = system: SR leukemia
SF-295 CNS = system: SF-295 CNS
EKVX NSCLC = system: EKVX NSCLC
OVCAR-5 ovarian = system: OVCAR-5 ovarian
HL-60(TB) leukemia = system: HL-60(TB) leukemia
SN12C renal = system: SN12C renal
LOX IMVI melanoma = system: LOX IMVI melanoma
IGROV1 ovarian = system: IGROV1 ovarian
OVCAR-3 ovarian = system: OVCAR-3 ovarian
NCI-H522 lung = system: NCI-H522 lung

Structure (SMILES)	TGI (SR leukemia) [µM]	TGI (SF-295 CNS) [µM]	TGI (EKVX NSCLC) [µM]	TGI (OVCAR-5 ovarian) [µM]	TGI (HL-60(TB) leukemia) [µM]	TGI (SN12C renal) [µM]	TGI (LOX IMVI melanoma) [µM]	TGI (IGROV1 ovarian) [µM]	TGI (OVCAR-3 ovarian) [µM]	GI50 (SR leukemia) [µM]	GI50 (SF-295 CNS) [µM]	GI50 (EKVX NSCLC) [µM]	GI50 (OVCAR-5 ovarian) [µM]	GI50 (HL-60(TB) leukemia) [µM]	GI50 (SN12C renal) [µM]	GI50 (LOX IMVI melanoma) [µM]	GI50 (IGROV1 ovarian) [µM]	GI50 (NCI-H522 lung) [µM]	TGI (NCI-H522 lung) [µM]	GI50 (OVCAR-3 ovarian) [µM]
Cc1ccccc1N=Nc1c(-c2ccccc2)nn(C(=O)CC(=O)Nc2cccc(Cl)c2)c1-c1ccccc1	20.3	> 31.6	> 31.6	> 31.6	24.5	22.9	25.3	> 31.6	> 31.6											
O=C(Nc1ccc2c(c1)OCCO2)C(=O)c1c[nH]c2ccccc12	> 46.7	10.6	> 100	> 100	> 32.9	> 83	> 100	> 72.4	4.68	0.268	1.33	5.37	3.47	1.21	2.31	1.3	3.09	0.536	16.3	1.29
O=C(/C=C\n1cnc(-c2cc(C(F)(F)F)cc(C(F)(F)F)c2)n1)N1CC(F)(F)C1	> 25	> 17	14.6	> 25	> 17.1	> 25	3.45	8.59	3.03	0.151	0.336	0.953	0.671	0.399	1.19	0.357	0.978	0.423	4.47	0.332
O=C(NCc1ccc2ccc3cccnc3c2n1)c1ccc[n+](Cc2ccccc2)c1	> 100	> 100	> 100	> 100	> 100	> 100	> 100	> 100	> 100										> 100	
CCn1c(=N)sc2nc3ccccc3n2c1=O	> 100	> 100	> 100	> 100	> 100	> 100	> 100	> 100	> 100										> 100	
CN1CCN(CCCOc2cccc3nc(Nc4ccc(F)c(F)c4)ccc23)CC1	4.07	9.3	9.41	9.73	11	9.93	3.36	11.4	9.51	0.87	4.64	4.83	4.71	5.18	4.87	1.03	5.55	1.01	3.69	4.58
COc1ccc2nc3cccc([N+](=O)[O-])c3c(NCCNCCN(C)C)c2c1		0.696	1.43	0.467	0.352	0.592	0.305	0.136	0.308	0.0329	0.0626	0.261	0.0375	0.0449	0.141	0.0652	0.0195	0.0102	0.0184	0.0992
